Data on 20 molecules can be found in US5821363A, “Antineoplastic use and pharmaceutical compositions containing them” (priority 1996, dated 1998).

Structures are written as SMILES. Values after ≈ are worked out from the molar mass of the structure shown. Where two headings read alike, the source gives them in different places.

Holding throughout (type): cell-based
Assay [1] relates to L1210 mouse leukemia carcinoma cells. The assay is described as follows: cytotoxicity / inhibition of cell proliferation in L1210 leukemia cells.
Assay [2] deals with A2780 human ovarian carcinoma. The assay is described as follows: cytotoxicity in A2780 human ovarian carcinoma cells.
In assay [3] the test system is KB-V1. The assay is described as follows: killing of multidrug resistant KB-V1 cells. The note with it: for IC50: Homo sapiens.
Assay [4] concerns KB-3-1. The assay is described as follows: killing of drug sensitive (non-MDR) KB-3-1 cells. Conditions: Homo sapiens.
Where [5] appears, read: L1210, read-out: L1210 (IC50 μg/ml).
Where [6] appears, read: A2780 human ovarian carcinoma, Table II, read-out: A2780 (IC50 μg/ml).
[7] abbreviates: KB-V1, read-out: KB-V1 (IC50; nM).
[8] abbreviates: KB 3-1, read-out: KB-3-1 (IC50; nM).
The mark [9] stands for this setting: Homo sapiens, A2780, read-out: A2780 (IC50 μg/ml).
The mark [10] stands for this setting: KB-V1 multidrug resistant cells, Table III, read-out: KB-V1 (IC50; nM).
Where [11] appears, read: ratio of IC50 KB-V1 to IC50 KB-3-1.
Where [12] appears, read: KB-3-1 drug sensitive cells, Table III, read-out: KB-3-1 (IC50; nM).
Where [13] appears, read: L1210 leukemia, Table I, 50% inhibition of cell proliferation vs untreated control, read-out: L1210 (IC50 μg/ml).

As for `CC(=O)O[C@H]1C(=O)[C@]2(C)C=C[C@H]3OC[C@@]3(OC(C)=O)[C@H]2[C@H](OC(=O)c2ccccc2)[C@]2(O)CC(OC(=O)[C@H](OC(=O)OCC(Cl)(Cl)Cl)[C@@H](NC(=O)OC(C)(C)C)c3ccccc3)=C(C)[C@H]1C2(C)C` [Compound 15, 2'-Troc-13-(N-Boc-β-phenylisoserinyl)-7-deoxy-Δ^6,7 -Δ^12,13-iso-baccatin III], the IC50 in assay [1] (setting [5]) amounted to 0.0066 µg/mL (≈ 6.55 nM).

Consider `CO[C@H]1C[C@H]2OC[C@@]2(OC(C)=O)[C@H]2[C@H](OC(=O)c3ccccc3)[C@]3(O)CC(OC(=O)[C@H](O)[C@@H](NC(=O)NC(C)(C)C)c4ccccc4)=C(C)[C@H]([C@@H](OC(C)=O)C(=O)[C@]12C)C3(C)C` [Compound 73, 7-(O-methyl)-13-(N-t-butylaminocarbonyl-β-phenylisoserinyl)-Δ^12,13-iso-baccatin III], for which the IC50 in assay [2] (setting [6]) amounted to 0.00039 µg/mL (≈ 0.452 nM).

Turning to `CC(=O)O[C@H]1C(=O)[C@]2(C)C=C[C@H]3OC[C@@]3(OC(C)=O)[C@H]2[C@H](OC(=O)c2ccccc2)[C@]2(O)CC(OC(=O)[C@H](O)[C@@H](NC(=O)NC(C)(C)C)c3ccccc3)=C(C)[C@H]1C2(C)C` [Compound 38, 13-(N-(t-butylaminocarbonyl)-β-phenylisoserinyl)-7-deoxy-Δ^6,7 -Δ^12,13-iso-baccatin III], the values for the IC50 in assay [3] (setting [7]) and in assay [4] (setting [8]) were 360 nM and 0.078 nM, respectively. In assay [3] (human, kb-v1 vs kb-3-1 cells), the “Ratio: KBV-1/KB-3-1” value is listed as 4,800.

As to `CC(=O)O[C@H]1C(=O)[C@]2(C)C(F)C[C@H]3OC[C@@]3(OC(C)=O)[C@H]2[C@H](OC(=O)c2ccccc2)[C@]2(O)CC(OC(=O)[C@H](O)[C@@H](NC(=O)OC(C)(C)C)c3ccccc3)=C(C)[C@H]1C2(C)C` (stereo partly drawn) [Compound 16, 13-(N-Boc-β-phenylisoserinyl)-7-deoxy-7-fluoro-Δ^12,13-iso-baccatin III], the IC50 in assay [1] (setting [5]) came to 0.0029 µg/mL (≈ 3.4 nM).

Regarding `COCO[C@H]1C[C@H]2OC[C@@]2(OC(C)=O)[C@H]2[C@H](OC(=O)c3ccccc3)[C@]3(O)CC(OC(=O)[C@H](O)[C@@H](NC(=O)OCc4ccccc4)c4ccccc4)=C(C)[C@H]([C@@H](OC(C)=O)C(=O)[C@]12C)C3(C)C` [Compound 64, 7-(O-methoxymethyl)-13-(N-Cbz-β-phenylisoserinyl)-Δ^12,13-iso-baccatin III], the IC50 in assay [2] (setting [9]) turned out to be 0.0029 µg/mL (≈ 3.13 nM).

As for `COCO[C@H]1C[C@H]2OC[C@@]2(OC(C)=O)[C@H]2[C@H](OC(=O)c3ccccc3)[C@]3(O)CC(OC(=O)[C@H](O)[C@@H](NC(=O)NC(C)(C)C)c4ccccc4)=C(C)[C@H]([C@@H](OC(C)=O)C(=O)[C@]12C)C3(C)C` [Compound 67, 7-(O-methoxymethyl)-13-(N-t-butylaminocarbonyl-β-phenylisoserinyl)-Δ^12,13-iso-baccatin III], the IC50 in assay [2] (setting [9]) stood at 0.00042 µg/mL (≈ 0.47 nM).

As for `COCO[C@H]1C[C@H]2OC[C@@]2(OC(C)=O)[C@H]2[C@H](OC(=O)c3ccccc3)[C@]3(O)CC(OC(=O)[C@H](O)[C@@H](NC(=O)OC(C)(C)C)c4ccccc4)=C(C)[C@H]([C@@H](OC(C)=O)C(=O)[C@]12C)C3(C)C` [Compound 66, 7-(O-methoxymethyl)-13-(N-Boc-β-phenylisoserinyl)-Δ^12,13-iso-baccatin III], the IC50 in assay [3] (setting [10]) was found to be 0.046 nM; in assay [2] (setting [6]), 0.00026 µg/mL (≈ 0.291 nM). The “Ratio: KBV-1/KB-3-1” value in assay [3] (setting [11]) worked out at 300.

As for `CSCO[C@H]1C[C@H]2OC[C@@]2(OC(C)=O)[C@H]2[C@H](OC(=O)c3ccccc3)[C@]3(O)CC(OC(=O)[C@H](O)[C@@H](NC(=O)NC(C)(C)C)c4ccccc4)=C(C)[C@H]([C@@H](OC(C)=O)C(=O)[C@]12C)C3(C)C` [Compound 72, 7-(O-methylthiomethyl)-13-(N-t-butylaminocarbonyl-β-phenylisoserinyl)-Δ^12,13-iso-baccatin III], the IC50 in assay [2] (setting [9]) amounted to 0.0004 µg/mL (≈ 0.44 nM).

As for `CC[Si](CC)(CC)O[C@H]1C[C@H]2OC[C@@]2(OC(C)=O)[C@H]2[C@H](OC(=O)c3ccccc3)[C@]3(O)CC(OC(=O)[C@H](O)[C@@H](NC(=O)NC(C)(C)C)c4ccccc4)=C(C)[C@H]([C@@H](OC(C)=O)C(=O)[C@]12C)C3(C)C` [Compound 32a, 7-TES-13-(N-(t-butylaminocarbonyl)-β-phenylisoserinyl)-Δ^12,13-iso-baccatin III], the IC50 in assay [1] (setting [5]) turned out to be 0.07 µg/mL (≈ 72.7 nM).

Take `CC(=O)O[C@H]1C(=O)[C@]23C[C@H]2C[C@H]2OC[C@@]2(OC(C)=O)[C@H]3[C@H](OC(=O)c2ccccc2)[C@]2(O)CC(OC(=O)[C@H](O)[C@@H](NC(=O)NC(C)(C)C)c3ccccc3)=C(C)[C@H]1C2(C)C` [Compound 36, 13-(N-(t-butylaminocarbonyl)-β-phenylisoserinyl)-7-deoxy-7β,8β-methano-Δ^12,13-iso-baccatin III]: the IC50 in assay [3] (setting [10]) amounted to 360 nM; in assay [4] (setting [12]), 0.05 nM. Also, in assay [3] (setting [11]), the “Ratio: KBV-1/KB-3-1” value is given as 11,400.

As for `CC[Si](CC)(CC)O[C@H]1C[C@H]2OC[C@@]2(OC(C)=O)[C@H]2[C@H](OC(=O)c3ccccc3)[C@]3(O)CC(OC(=O)[C@H](O)[C@@H](NC(=O)OC(C)(C)C)c4ccccc4)=C(C)[C@H]([C@@H](OC(C)=O)C(=O)[C@]12C)C3(C)C` [Compound 6, 7-TES-13-(N-Boc-β-phenylisoserinyl)-Δ^12,13-iso-baccatin III], in assay [1] (setting [5]), the IC50 is above 0.1 µg/mL.

With `CC(=O)O[C@H]1C(=O)[C@@]2(C)[C@H]([C@H](OC(=O)c3ccccc3)[C@]3(O)CC(OC(=O)[C@H](O)[C@@H](NC(=O)NC(C)(C)C)c4ccccc4)=C(C)[C@H]1C3(C)C)[C@]1(OC(C)=O)CO[C@@H]1C[C@@H]2O` [Compound 32b, 13-(N-(t-butylaminocarbonyl)-β-phenylisoserinyl)-Δ^12,13-iso-baccatin III], the IC50 in assay [1] (setting [13]) amounted to 0.0053 µg/mL (≈ 6.24 nM); in assay [3] (setting [10]) it was 1100 nM; in assay [4] (setting [12]), 0.081 nM. In addition, the “Ratio: KBV-1/KB-3-1” value in assay [3] (setting [11]) is given as 17,650.

For `CC(=O)O[C@H]1C(=O)[C@]2(C)[C@@H](OC(=O)OCC(Cl)(Cl)Cl)C[C@H]3OC[C@@]3(OC(C)=O)[C@H]2[C@H](OC(=O)c2ccccc2)[C@]2(O)CC(OC(=O)[C@H](O)[C@@H](NC(=O)OC(C)(C)C)c3ccccc3)=C(C)[C@H]1C2(C)C` [Compound 12, 7-Troc-13-(N-Boc-β-phenylisoserinyl)-Δ^12,13-iso-baccatin III], the IC50 in assay [1] (setting [5]) is 0.011 µg/mL (≈ 10.7 nM).

As to `CC(=O)O[C@H]1C(=O)[C@]2(C)C=C[C@H]3OC[C@@]3(OC(C)=O)[C@H]2[C@H](OC(=O)c2ccccc2)[C@]2(O)CC(OC(=O)[C@H](O)[C@@H](NC(=O)OC(C)(C)C)c3ccccc3)=C(C)[C@H]1C2(C)C` [Compound 18, 13-(N-Boc-β-phenylisoserinyl)-7-deoxy-Δ^6,7 -Δ^12,13-iso-baccatin III], the IC50 in assay [1] (setting [5]) was 0.0022 µg/mL (≈ 2.64 nM); in assay [3] (setting [7]), 6.2 nM; in assay [4] (setting [8]), 0.2 nM. Also, the “Ratio: KBV-1/KB-3-1” value in assay [3] (human, kb-v1 vs kb-3-1 cells) stood at 34.

As to `CCOCO[C@H]1C[C@H]2OC[C@@]2(OC(C)=O)[C@H]2[C@H](OC(=O)c3ccccc3)[C@]3(O)CC(OC(=O)[C@H](O)[C@@H](NC(=O)OC(C)(C)C)c4ccccc4)=C(C)[C@H]([C@@H](OC(C)=O)C(=O)[C@]12C)C3(C)C` [Compound 41, 7-(O-ethoxymethyl)-13-(N-Boc-β-phenylisoserinyl)-Δ^12,13-iso-baccatin III], the IC50 in assay [1] (setting [13]) came out at 0.0007 µg/mL (≈ 0.771 nM); in assay [3] (setting [10]) it was 0.77 nM; in assay [4] (setting [12]), 0.011 nM. Besides, the “Ratio: KBV-1/KB-3-1” value in assay [3] (setting [11]) stood at 170.

As to `CC(=O)O[C@H]1C(=O)[C@]23C[C@H]2C[C@H]2OC[C@@]2(OC(C)=O)[C@H]3[C@H](OC(=O)c2ccccc2)[C@]2(O)CC(OC(=O)[C@H](O)[C@@H](NC(=O)OC(C)(C)C)c3ccccc3)=C(C)[C@H]1C2(C)C` [Compound 17, 13-(N-Boc-β-phenylisoserinyl)-7-deoxy-7β,8β-methano-Δ^12,13-iso-baccatin III], in assay [1] (L1210, read-out: IC90 (90% growth inhibitory concentration)), the IC90 was 17 ng/mL (≈ 20.4 nM). The IC50 in assay [1] (setting [5]) came to 0.0018 µg/mL (≈ 2.16 nM); in assay [3] (setting [7]), 13 nM; in assay [4] (setting [8]) it was 0.22 nM. Also, in assay [3] (human, kb-v1 vs kb-3-1 cells), the “Ratio: KBV-1/KB-3-1” value worked out at 61.

Consider `CC(=O)O[C@@]12CO[C@@H]1C[C@H](O)[C@@]1(C)C(=O)[C@H](O)[C@H]3C(C)=C(OC(=O)[C@H](O)[C@@H](NC(=O)OC(C)(C)C)c4ccccc4)C[C@@](O)([C@@H](OC(=O)c4ccccc4)[C@H]21)C3(C)C` [Compound 8, 10-deacetyl-13-(N-Boc-β-phenylisoserinyl)-Δ^12,13-iso-baccatin III], for which the IC50 in assay [1] (setting [13]) was 0.0059 µg/mL (≈ 7.3 nM).

Turning to `CCOCO[C@H]1C[C@H]2OC[C@@]2(OC(C)=O)[C@H]2[C@H](OC(=O)c3ccccc3)[C@]3(O)CC(OC(=O)[C@H](O)[C@@H](NC(=O)NC(C)(C)C)c4ccccc4)=C(C)[C@H]([C@@H](OC(C)=O)C(=O)[C@]12C)C3(C)C` [Compound 43, 7-(O-ethoxymethyl)-13-(N-(t-butylaminocarbonyl)-β-phenylisoserinyl)-Δ^12,13-iso-baccatin III], the IC50 in assay [1] (setting [13]) is 0.0014 µg/mL (≈ 1.54 nM); in assay [3] (setting [10]), 120 nM. For the same molecule, in assay [3] (setting [11]), the “Ratio: KBV-1/KB-3-1” value is on record as 2.5 × 10^5.

Regarding `CC(=O)O[C@H]1C(=O)[C@@]2(C)[C@H]([C@H](OC(=O)c3ccccc3)[C@]3(O)CC(OC(=O)[C@H](O)[C@@H](NC(=O)OC(C)(C)C)c4ccccc4)=C(C)[C@H]1C3(C)C)[C@]1(OC(C)=O)CO[C@@H]1C[C@@H]2O` [Compound 7, 13-(N-Boc-β-phenylisoserinyl)-Δ^12,13-iso-baccatin III], the IC50 stood at 0.0046 µg/mL (≈ 5.41 nM) in assay [1] (setting [13]), 40 nM in assay [3] (setting [10]) and 0.2 nM in assay [4] (setting [12]). Besides, the “Ratio: KBV-1/KB-3-1” value in assay [3] (setting [11]) was determined as 228.

In the case of `CC(=O)O[C@H]1C(=O)[C@]23C[C@H]2C[C@H]2OC[C@@]2(OC(C)=O)[C@H]3[C@H](OC(=O)c2ccccc2)[C@]2(O)CC(OC(=O)[C@H](OC(=O)OCC(Cl)(Cl)Cl)[C@@H](NC(=O)OC(C)(C)C)c3ccccc3)=C(C)[C@H]1C2(C)C` [Compound 14, 2'-Troc-13-(N-Boc-β-phenylisoserinyl)-7-deoxy-7b,8b-methano-Δ^12,13-iso-baccatin III], in assay [1] (setting [5]), the IC50 was 0.012 µg/mL (≈ 11.9 nM).
